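In this assay, cells in 96-well plates receive the compound at five concentrations for 48 hours. Endpoints are linearly interpolated between the surrounding concentrations. GI50: concentration for 50% inhibition of growth. Definition used: TGI = concentration required for complete inhibition of growth.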
Legend:
Test in all cases: NCI anticancer screen, dose series, 48 h; in the data active = GI50 below about 0.43 µM; inactive = the rest
786-0 renal = test system: 786-0 renal
A498 renal = test system: A498 renal
A549 NSCLC = test system: A549 NSCLC
ACHN renal = test system: ACHN renal
BT-549 breast = test system: BT-549 breast
CAKI-1 renal = test system: CAKI-1 renal
CCRF-CEM leukemia = test system: CCRF-CEM leukemia
COLO 205 colon = test system: COLO 205 colon
DU-145 prostate = test system: DU-145 prostate
EKVX NSCLC = test system: EKVX NSCLC
HCC-2998 colon = test system: HCC-2998 colon
HCT-116 colon = test system: HCT-116 colon
HCT-15 colon = test system: HCT-15 colon
HL-60(TB) leukemia = test system: HL-60(TB) leukemia
HOP-62 NSCLC = test system: HOP-62 NSCLC
HOP-92 NSCLC = test system: HOP-92 NSCLC
HS 578T breast = test system: HS 578T breast
HT29 colon = test system: HT29 colon
IGROV1 ovarian = test system: IGROV1 ovarian
K-562 leukemia = test system: K-562 leukemia
KM12 colon = test system: KM12 colon
LOX IMVI melanoma = test system: LOX IMVI melanoma
M14 melanoma = test system: M14 melanoma
MALME-3M melanoma = test system: MALME-3M melanoma
MCF7 breast = test system: MCF7 breast
MDA-MB-231 breast = test system: MDA-MB-231 breast
MDA-MB-435 = test system: MDA-MB-435
MDA-MB-468 breast = test system: MDA-MB-468 breast
MOLT-4 leukemia = test system: MOLT-4 leukemia
NCI-H226 lung = test system: NCI-H226 lung
NCI-H23 lung = test system: NCI-H23 lung
NCI-H460 lung = test system: NCI-H460 lung
NCI-H522 lung = test system: NCI-H522 lung
NCI/ADR-RES ovarian = test system: NCI/ADR-RES ovarian
OVCAR-3 ovarian = test system: OVCAR-3 ovarian
OVCAR-4 ovarian = test system: OVCAR-4 ovarian
OVCAR-5 ovarian = test system: OVCAR-5 ovarian
OVCAR-8 ovarian = test system: OVCAR-8 ovarian
PC-3 prostate = test system: PC-3 prostate
RPMI-8226 leukemia = test system: RPMI-8226 leukemia
RXF 393 renal = test system: RXF 393 renal
SF-268 CNS = test system: SF-268 CNS
SF-295 CNS = test system: SF-295 CNS
SF-539 CNS = test system: SF-539 CNS
SK-MEL-2 melanoma = test system: SK-MEL-2 melanoma
SK-MEL-28 melanoma = test system: SK-MEL-28 melanoma
SK-MEL-5 melanoma = test system: SK-MEL-5 melanoma
SK-OV-3 ovarian = test system: SK-OV-3 ovarian
SN12C renal = test system: SN12C renal
SNB-19 CNS = test system: SNB-19 CNS
SNB-75 CNS = test system: SNB-75 CNS
SR leukemia = test system: SR leukemia
SW-620 colon = test system: SW-620 colon
T-47D breast = test system: T-47D breast
TK-10 renal = test system: TK-10 renal
U251 CNS = test system: U251 CNS
UACC-257 melanoma = test system: UACC-257 melanoma
UACC-62 melanoma = test system: UACC-62 melanoma
UO-31 renal = test system: UO-31 renal

Clc1ccc(CNc2nc(SCCN3CCOCC3)nc3c2cnn3CC(Cl)c2ccc(Br)cc2)cc1 (stereo not drawn)
11 µM: TGI (HCT-15 colon)
94.6 µM: TGI (BT-549 breast)
5.63 µM: TGI (SR leukemia)
63.1 µM: TGI (SK-MEL-2 melanoma)
18.9 µM: TGI (MDA-MB-468 breast)
91.7 µM: TGI (SW-620 colon)
26.8 µM: TGI (HL-60(TB) leukemia)
inactive: GI50 (786-0 renal) 5.62 µM | GI50 (A498 renal) 54.1 µM | GI50 (A549 NSCLC) 4.18 µM | GI50 (ACHN renal) 4.19 µM | GI50 (BT-549 breast) 18.4 µM | GI50 (CAKI-1 renal) 5.45 µM | GI50 (CCRF-CEM leukemia) 3.85 µM | GI50 (COLO 205 colon) 5.71 µM | GI50 (DU-145 prostate) 46.4 µM | GI50 (EKVX NSCLC) 4.55 µM | GI50 (HCC-2998 colon) 4.4 µM | GI50 (HCT-116 colon) 3.81 µM | GI50 (HCT-15 colon) 3.03 µM | GI50 (HL-60(TB) leukemia) 2.81 µM | GI50 (HOP-62 NSCLC) 63 µM | GI50 (HOP-92 NSCLC) 8.71 µM | GI50 (HS 578T breast) 9.59 µM | GI50 (HT29 colon) 1.91 µM | GI50 (IGROV1 ovarian) 65.4 µM | GI50 (K-562 leukemia) 2.85 µM | GI50 (KM12 colon) 5.39 µM | GI50 (LOX IMVI melanoma) 4.49 µM | GI50 (M14 melanoma) 6.01 µM | GI50 (MALME-3M melanoma) 3.94 µM | GI50 (MCF7 breast) 3.45 µM | GI50 (MDA-MB-231 breast) 9.03 µM | GI50 (MDA-MB-435) 6.65 µM | GI50 (MDA-MB-468 breast) 3.3 µM | GI50 (MOLT-4 leukemia) 2.62 µM | GI50 (NCI-H226 lung) 5.68 µM | GI50 (NCI-H23 lung) 7.84 µM | GI50 (NCI-H460 lung) 4.57 µM | GI50 (NCI-H522 lung) 6.17 µM | GI50 (NCI/ADR-RES ovarian) 4.14 µM | GI50 (OVCAR-3 ovarian) 9.59 µM | GI50 (OVCAR-4 ovarian) 5.3 µM | GI50 (OVCAR-5 ovarian) > 100 µM | GI50 (OVCAR-8 ovarian) 17.9 µM | GI50 (PC-3 prostate) 4.3 µM | GI50 (RPMI-8226 leukemia) 3.52 µM | GI50 (RXF 393 renal) 1.72 µM | GI50 (SF-268 CNS) 7.43 µM | GI50 (SF-295 CNS) 3.91 µM | GI50 (SF-539 CNS) 4.37 µM | GI50 (SK-MEL-2 melanoma) 13 µM | GI50 (SK-MEL-28 melanoma) 14 µM | GI50 (SK-MEL-5 melanoma) 7.66 µM | GI50 (SK-OV-3 ovarian) > 100 µM | GI50 (SN12C renal) 6.14 µM | GI50 (SNB-19 CNS) 8.34 µM | GI50 (SNB-75 CNS) 4.65 µM | GI50 (SR leukemia) 1.68 µM | GI50 (SW-620 colon) 6.11 µM | GI50 (T-47D breast) 3.05 µM | GI50 (TK-10 renal) 31.9 µM | GI50 (U251 CNS) 5.35 µM | GI50 (UACC-257 melanoma) 29.9 µM | GI50 (UACC-62 melanoma) 11.7 µM | GI50 (UO-31 renal) 3.65 µM
8.87 µM: TGI (RXF 393 renal)
32 µM: TGI (COLO 205 colon)
28.9 µM: TGI (MALME-3M melanoma)
> 100 µM: TGI (786-0 renal) | TGI (A498 renal) | TGI (A549 NSCLC) | TGI (ACHN renal) | TGI (CAKI-1 renal) | TGI (CCRF-CEM leukemia) | TGI (DU-145 prostate) | TGI (EKVX NSCLC) | TGI (HCC-2998 colon) | TGI (HCT-116 colon) | TGI (HOP-62 NSCLC) | TGI (HOP-92 NSCLC) | TGI (HS 578T breast) | TGI (IGROV1 ovarian) | TGI (K-562 leukemia) | TGI (KM12 colon) | TGI (LOX IMVI melanoma) | TGI (M14 melanoma) | TGI (MCF7 breast) | TGI (MDA-MB-231 breast) | TGI (MDA-MB-435) | TGI (NCI-H226 lung) | TGI (NCI-H23 lung) | TGI (NCI-H460 lung) | TGI (NCI-H522 lung) | TGI (NCI/ADR-RES ovarian) | TGI (OVCAR-3 ovarian) | TGI (OVCAR-4 ovarian) | TGI (OVCAR-5 ovarian) | TGI (OVCAR-8 ovarian) | TGI (PC-3 prostate) | TGI (RPMI-8226 leukemia) | TGI (SF-268 CNS) | TGI (SF-295 CNS) | TGI (SF-539 CNS) | TGI (SK-MEL-28 melanoma) | TGI (SK-OV-3 ovarian) | TGI (SN12C renal) | TGI (SNB-19 CNS) | TGI (SNB-75 CNS) | TGI (T-47D breast) | TGI (TK-10 renal) | TGI (U251 CNS) | TGI (UACC-257 melanoma) | TGI (UACC-62 melanoma) | TGI (UO-31 renal)
4.04 µM: TGI (HT29 colon)
21 µM: TGI (SK-MEL-5 melanoma)
8.27 µM: TGI (MOLT-4 leukemia)

Reference: PubChem BioAssay (NCI)
